# According to US20170037118A1, “Methods for treating and/or limiting development of diabetes” (Biocrine AB, priority 2013, published 2017):
# Test system: 12-weeks-old ob/ob islets
# Test: Caspase 3/7 activity assay (apoptosis)
# Assay type: cell-based, mouse
# Details: β-cells from 12-weeks old ob/ob mice incubated overnight with the Ca2+-channel blocker
# Protocol: ApoCIII expression was measured by real-time qPCR to determine the efficacy of apoCIII knockdown in cultured islets (n=4). […] (c) 25 mM KCl was used to induce depolarization and subsequent Ca^2+ influx (n=9-10). (d) Caspase 3/7 activity in ob/ob islets isolated from animals at 4-, 8- and 12-weeks of age (n=4). (e) Decrease in caspase activity in β-cells from 12-weeks old ob/ob mice either incubated overnight with the Ca^2+-channel blocker verapamil (left column) or exposed to apoCIII antisense (right column) (n=4). Data presented as mean±SEM. *P<0.05, ** P<0.01 by student's t-test or ANOVA (Tukey's post-hoc).
# Caspase assay. Activity of capase 3/7 was determined using SensoLyte™ Homogeneous Rh110 Caspase 3/7 assay kit according to manufacturer's instructions, with modifications (AnaChem, USA). Briefly, islets or cells were harvested, lysed using lysis buffer (AnaChem, USA) and the protein quantified using BCA method. 10 μg of protein was loaded in a black 384-well plate and topped up with the appropriate amount of assay buffer (AnaChem, USA) containing Rh110 Caspase 3/7 Substrate. Plate was incubated in the dark for 1 hour at 24° C. Fluorescence intensity at Ex/Em=490/520nm was measured to determine the relative caspase activity.
# It was determined if reducing endogenous apoCIII affects apoptosis in ob/ob islets. […]
compound,measurement,value
COc1ccc(CCN(C)CCCC(C#N)(c2ccc(OC)c(OC)c2)C(C)C)cc1OC (stereo not shown) [verapamil],reduction of caspase activity,15%
